Patent US20090012179A1, “Use of Tyrphostins to Stimulate Neurite Outgrowth” (priority 2004, published 2009)
“Also recorded” adds a separate entry of the source.

How the values were obtained:
ERK [1] = assay: ERK activation in NS20Y neuroblastoma cells, immunoblotting for dually phosphorylated ERK; format: cell-based, mouse; settings: for Effect of inhibitor pretreatment on A9-stimulated ERK activation: A9 1 μM, 45 minutes; for ERK activation: dually phosphorylated ERK by immunoblotting
PKCζ = target: T1, PKCζ (Homo sapiens, UniProt Q05513); settings: read-out: IC50 for activation of PKCζ; cited from earlier work
T1 sequence (Q05513 1-592): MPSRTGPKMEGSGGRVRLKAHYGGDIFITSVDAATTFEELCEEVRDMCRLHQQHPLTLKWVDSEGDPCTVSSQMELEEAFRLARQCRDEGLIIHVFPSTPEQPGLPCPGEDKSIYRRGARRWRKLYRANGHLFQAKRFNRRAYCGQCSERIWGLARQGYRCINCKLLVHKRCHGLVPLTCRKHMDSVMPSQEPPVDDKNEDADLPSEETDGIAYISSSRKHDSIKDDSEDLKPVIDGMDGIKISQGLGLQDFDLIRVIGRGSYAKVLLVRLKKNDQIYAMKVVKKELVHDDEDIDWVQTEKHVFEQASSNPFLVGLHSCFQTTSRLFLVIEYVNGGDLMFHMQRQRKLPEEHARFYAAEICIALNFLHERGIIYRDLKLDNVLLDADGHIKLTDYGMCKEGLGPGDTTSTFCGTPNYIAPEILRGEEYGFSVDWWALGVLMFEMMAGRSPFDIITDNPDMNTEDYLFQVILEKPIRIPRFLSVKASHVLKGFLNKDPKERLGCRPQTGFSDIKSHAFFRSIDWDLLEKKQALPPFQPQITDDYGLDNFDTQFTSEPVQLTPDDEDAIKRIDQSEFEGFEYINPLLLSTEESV

SH-SY5Y cells = assay: Neurite length in NGF-treated SH-SY5Y neuroblastoma cells; format: cell-based, human
Description: Analysis of neurite length in SH-SY5Y neuroblastoma cells: SH-SY5Y neuroblastoma cells develop axonal-like processes on treatment with NGF. For analysis of process length, cells (20 fields/well) are randomly photographed at 96 and 168 hours. Neurite lengths are measured on photographic prints using a Houston Instrument HI-PAD digitizing tablet connected to a computer with appropriate software (Bioquant IV); only processes more than twice the cell body length are measured. Data from identically treated wells are combined. […] Histograms are compared using a Mann-Whitney U test (α=0.05), which makes no assumptions about the shape of the distribution.
As disclosed herein, high and sustained ERK activation induces neurite growth in […] neuroblastoma cells and protects neuronal cells from neurotoxins. To test this, SH-SY5Y human neuroblastoma cells were used, which can be induced into neuron-like phenotype by NGF treatment. This is an established method for measuring neurite growth-promoting activity in vitro in Dr. Gold's lab (Gold et al., Neurosignals. 13:122-129, 2004; Gold et al., Exp. Neurol. 147:269-278, 1997). […] Representative micrographs at 168 hours for vehicle (control), NGF (10 ng/ml), and NGF (10 ng/ml) plus A9 (100 nM) are shown in FIG. 5B.

ERK [2] = settings: NS20Y cells; previous study; cited from earlier work

Compound | Effect of inhibitor pretreatment on A9-stimulated ERK activation (ERK [1]) | ERK activation (ERK [1]) | other results
N#CC(C#N)=Cc1cc(O)c(O)c(O)c1 [AG82] | did not prevent the effect of A9 | did not stimulate ERK | 
N#CC(=Cc1ccc2[nH]ccc2c1)C(N)=C(C#N)C#N [AG370] |  | moderate stimulation of ERK; also recorded: little or no effect | 
CC(C)(C)c1cc(/C=C(\C#N)C(N)=S)cc(C(C)(C)C)c1O [AG879] |  | little or no effect | ERK stimulation (ERK [1]; at 0.1 μM): moderate stimulation of ERK; ERK stimulation (ERK [1]; at 1 μM): showed no effect
Cc1cc2ncc(-c3ccccc3)nc2cc1C [AG1295] |  | did not stimulate ERK; also recorded: little or no effect | 
CN(C)CCCn1cc(C2=C(c3c[nH]c4ccccc34)C(=O)NC2=O)c2ccccc21 [BisI, bisindolylmaleimide I] | failed to prevent A9-stimulated ERK activity |  | IC50 (PKCζ): 5.8 µM
COc1cccc(-c2cc(=O)c3ccccc3o2)c1N [PD98059, reference compound] | prevented A9 from stimulating ERK activation |  | Effect of MEK inhibitor on A9-induced neurite outgrowth (SH-SY5Y cells; SH-SY5Y cells): did inhibit A9-induced neurite outgrowth
CC(C)(C)n1nc(-c2ccc(Cl)cc2)c2c(N)ncnc21 [PP2] | failed to prevent A9-stimulated ERK activity |  | Block of ERK activation induced by quinpirole (ERK [2]): block ERK activation induced by quinpirole
CN[C@@H]1C[C@H]2O[C@@](C)([C@@H]1OC)n1c3ccccc3c3c4c(c5c6ccccc6n2c5c31)C(=O)NC4 [stauosporine] | prevented A9 from stimulating ERK activation |  | 
NGF: nerve growth factor |  |  | Development of axonal-like processes (SH-SY5Y cells; SH-SY5Y, NGF 10 ng/ml alone): developed long axonal-like processes
